pIC50: −log10 of the molar value.
Assays:
[1] = target: T1, Sodium/glucose cotransporter 1 (Homo sapiens, UniProt P13866); test: Inhibition of human SGLT1 expressed in CHO cells assessed as inhibition of [14C]-alpha-methyl-D-glucopyranoside transport after 60 mins by scintillation counting; type: cell-based
T1 sequence (P13866 whole entry): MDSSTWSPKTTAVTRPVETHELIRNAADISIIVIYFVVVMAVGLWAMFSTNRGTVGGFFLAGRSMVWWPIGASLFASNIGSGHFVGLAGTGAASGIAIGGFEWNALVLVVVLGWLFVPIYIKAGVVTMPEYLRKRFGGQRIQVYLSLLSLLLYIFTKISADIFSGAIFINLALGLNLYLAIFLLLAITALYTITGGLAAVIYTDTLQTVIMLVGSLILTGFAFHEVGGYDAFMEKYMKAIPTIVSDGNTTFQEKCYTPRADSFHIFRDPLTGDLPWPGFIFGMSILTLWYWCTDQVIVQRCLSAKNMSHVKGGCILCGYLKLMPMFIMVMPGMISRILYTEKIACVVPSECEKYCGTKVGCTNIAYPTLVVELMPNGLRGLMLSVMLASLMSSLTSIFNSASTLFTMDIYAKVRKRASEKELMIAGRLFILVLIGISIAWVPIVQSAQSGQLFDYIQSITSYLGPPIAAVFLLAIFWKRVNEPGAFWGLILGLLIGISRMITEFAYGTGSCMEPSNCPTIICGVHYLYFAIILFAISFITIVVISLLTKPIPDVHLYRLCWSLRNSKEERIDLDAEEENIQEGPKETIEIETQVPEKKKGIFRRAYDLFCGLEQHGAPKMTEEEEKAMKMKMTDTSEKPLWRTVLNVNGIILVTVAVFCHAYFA

[2] = target: T2, Sodium/glucose cotransporter 1 (Rattus norvegicus, UniProt P53790); test: Inhibition of rat SGLT1 expressed in CHO cells assessed as inhibition of [14C]-alpha-methyl-D-glucopyranoside transport after 60 mins by scintillation counting; type: cell-based
T2 sequence (P53790 whole entry): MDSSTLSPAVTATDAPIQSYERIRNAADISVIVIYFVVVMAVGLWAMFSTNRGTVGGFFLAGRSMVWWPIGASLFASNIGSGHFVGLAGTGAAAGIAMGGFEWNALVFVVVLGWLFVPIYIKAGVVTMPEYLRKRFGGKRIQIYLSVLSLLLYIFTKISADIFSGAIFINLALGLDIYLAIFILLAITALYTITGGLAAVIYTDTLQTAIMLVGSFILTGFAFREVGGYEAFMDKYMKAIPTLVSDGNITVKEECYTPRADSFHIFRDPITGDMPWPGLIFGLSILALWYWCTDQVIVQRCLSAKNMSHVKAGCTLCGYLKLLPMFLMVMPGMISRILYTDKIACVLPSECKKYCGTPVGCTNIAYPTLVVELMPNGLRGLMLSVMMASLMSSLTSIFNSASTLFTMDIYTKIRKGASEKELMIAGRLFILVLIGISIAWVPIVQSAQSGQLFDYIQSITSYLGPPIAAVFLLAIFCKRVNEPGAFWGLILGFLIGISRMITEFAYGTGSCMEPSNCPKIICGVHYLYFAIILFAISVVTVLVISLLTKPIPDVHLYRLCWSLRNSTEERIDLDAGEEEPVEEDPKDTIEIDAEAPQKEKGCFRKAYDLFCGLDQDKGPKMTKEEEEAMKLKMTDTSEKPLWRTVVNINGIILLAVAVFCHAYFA

pIC50 [1]: 5.15
pIC50 [2]: 5.05
SMILES: Cn1c(CN2C(=O)CSc3ccc(C(F)(F)F)cc32)nnc1SCc1ccc(Cl)cc1

— ChEMBL document CHEMBL1759842, “Discovery of non-glucoside SGLT2 inhibitors” (Bioorg Med Chem Lett, 2011)
